The text below walks through data of patent US20250066350A1, “AROMATIC HETEROCYCLE-SUBSTITUTED COMPOUNDS, AND PREPARATION METHOD THEREFOR AND USE THEREOF” (Innovstone Therapeutics Limited, priority 2021, published 2025).

Read-outs that look alike come from different tables or passages of the source. Some results are limits rather than exact numbers.

One test addresses ATR enzyme (Homo sapiens (Human), UniProt Q13535). Put plainly: Inhibitory effect on ATR enzyme (HTRF, phospho-P53). Format: biochemical. Conditions: 90 minutes incubation, 150 nM ATP final; read-out: IC50 for ATR enzyme inhibition. Put shortly: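 Recombinant ATR phosphorylating GST-tagged P53 with 150 nM ATP final (40 nM final P53), 10-point compound series from 2985.0 to 0.15 nM, 0.498% DMSO, 90 min at room temperature. Detection with anti-phospho-p53-Eu/anti-GST-d2 overnight at 4° C in dark; HTRF 665/612 ratio used to derive IC50.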

For another test, the system named is SNU-601 cells. Nature of the test: SNU-601 cell proliferation experiment (CellTiter-Glo, intracellular ATP). To be noted: SNU-601 human gastric cancer cells, 5 days, read-out: IC50 for inhibition of SNU-601 cell proliferation. Format: cell-based. Put shortly: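 Human gastric cancer cells in RPMI 1640/10% FBS plated and settled 24 h before adding compounds in a 10-point 3-fold series (2 mM DMSO top stock). Exposure 5 days at 37 °C, 5% CO2. Viability by CellTiter-Glo luminescence (ATP); IC50 from the curves.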

For another test, the system named is LoVo cells. Put plainly: LoVo cell proliferation experiment (CellTiter-Glo, intracellular ATP). Format: cell-based. To be noted: LoVo human colon cancer cells, 4 days, read-out: IC50 for inhibition of LoVo cell proliferation. As to the method: The following method is used to evaluate the inhibitory effect of the compounds of the present invention on LoVo cell proliferation according to the IC50 values by means of detecting the intracellular ATP content. The experimental method is briefly described as follows:
1. LoVo, human colon cancer tumor cells (Co-bioer, CBP60032)
LoVo cells were cultured in F-12K medium containing 10% FBS and passaged 2 to 3 times a week at a split ratio of 1:3 or 1:5. During passage, the cells were trypsinized and transferred to a centrifuge tube. The tube was centrifuged at 1000 rpm for 5 minutes, the supernatant medium was discarded, and fresh medium was added to resuspend the cells. 100 μL of cell suspension at a density of 1.5×10^4 cells/mL was added to a 96-well cell culture plate, and 100 μL of complete medium only was added to the periphery wells of the 96-well plate. The culture plate was incubated in an incubator for 24 hours (37° C., 5% CO2).
The sample to be tested was diluted to 1 mM with DMSO, diluted 3-fold serially to 8 concentrations, and prepared to 200× dilution with cell culture medium. Blank and control wells were set. 5 μL of the solution containing the compound to be tested prepared in gradient concentrations was added to 95 μL of fresh medium. 100 μL of 1× culture medium containing the compound was added to the culture plate. The culture plate was incubated in an incubator for 4 days (37° C., 5% CO2). 50 μL of CellTiter-Glo reagent was added to each well of the 96-well cell culture plate, and the plate was placed at room temperature in the dark for 5-10 min. The chemiluminescent signal values were read in PHERAstar, and data were processed using GraphPad software.
The inhibitory effect of the compounds of the present invention on LoVo cell proliferation can be determined by the test described above, and the measured IC50 values are shown in Table 2.

Sequence of ATR enzyme (Q13535 whole entry): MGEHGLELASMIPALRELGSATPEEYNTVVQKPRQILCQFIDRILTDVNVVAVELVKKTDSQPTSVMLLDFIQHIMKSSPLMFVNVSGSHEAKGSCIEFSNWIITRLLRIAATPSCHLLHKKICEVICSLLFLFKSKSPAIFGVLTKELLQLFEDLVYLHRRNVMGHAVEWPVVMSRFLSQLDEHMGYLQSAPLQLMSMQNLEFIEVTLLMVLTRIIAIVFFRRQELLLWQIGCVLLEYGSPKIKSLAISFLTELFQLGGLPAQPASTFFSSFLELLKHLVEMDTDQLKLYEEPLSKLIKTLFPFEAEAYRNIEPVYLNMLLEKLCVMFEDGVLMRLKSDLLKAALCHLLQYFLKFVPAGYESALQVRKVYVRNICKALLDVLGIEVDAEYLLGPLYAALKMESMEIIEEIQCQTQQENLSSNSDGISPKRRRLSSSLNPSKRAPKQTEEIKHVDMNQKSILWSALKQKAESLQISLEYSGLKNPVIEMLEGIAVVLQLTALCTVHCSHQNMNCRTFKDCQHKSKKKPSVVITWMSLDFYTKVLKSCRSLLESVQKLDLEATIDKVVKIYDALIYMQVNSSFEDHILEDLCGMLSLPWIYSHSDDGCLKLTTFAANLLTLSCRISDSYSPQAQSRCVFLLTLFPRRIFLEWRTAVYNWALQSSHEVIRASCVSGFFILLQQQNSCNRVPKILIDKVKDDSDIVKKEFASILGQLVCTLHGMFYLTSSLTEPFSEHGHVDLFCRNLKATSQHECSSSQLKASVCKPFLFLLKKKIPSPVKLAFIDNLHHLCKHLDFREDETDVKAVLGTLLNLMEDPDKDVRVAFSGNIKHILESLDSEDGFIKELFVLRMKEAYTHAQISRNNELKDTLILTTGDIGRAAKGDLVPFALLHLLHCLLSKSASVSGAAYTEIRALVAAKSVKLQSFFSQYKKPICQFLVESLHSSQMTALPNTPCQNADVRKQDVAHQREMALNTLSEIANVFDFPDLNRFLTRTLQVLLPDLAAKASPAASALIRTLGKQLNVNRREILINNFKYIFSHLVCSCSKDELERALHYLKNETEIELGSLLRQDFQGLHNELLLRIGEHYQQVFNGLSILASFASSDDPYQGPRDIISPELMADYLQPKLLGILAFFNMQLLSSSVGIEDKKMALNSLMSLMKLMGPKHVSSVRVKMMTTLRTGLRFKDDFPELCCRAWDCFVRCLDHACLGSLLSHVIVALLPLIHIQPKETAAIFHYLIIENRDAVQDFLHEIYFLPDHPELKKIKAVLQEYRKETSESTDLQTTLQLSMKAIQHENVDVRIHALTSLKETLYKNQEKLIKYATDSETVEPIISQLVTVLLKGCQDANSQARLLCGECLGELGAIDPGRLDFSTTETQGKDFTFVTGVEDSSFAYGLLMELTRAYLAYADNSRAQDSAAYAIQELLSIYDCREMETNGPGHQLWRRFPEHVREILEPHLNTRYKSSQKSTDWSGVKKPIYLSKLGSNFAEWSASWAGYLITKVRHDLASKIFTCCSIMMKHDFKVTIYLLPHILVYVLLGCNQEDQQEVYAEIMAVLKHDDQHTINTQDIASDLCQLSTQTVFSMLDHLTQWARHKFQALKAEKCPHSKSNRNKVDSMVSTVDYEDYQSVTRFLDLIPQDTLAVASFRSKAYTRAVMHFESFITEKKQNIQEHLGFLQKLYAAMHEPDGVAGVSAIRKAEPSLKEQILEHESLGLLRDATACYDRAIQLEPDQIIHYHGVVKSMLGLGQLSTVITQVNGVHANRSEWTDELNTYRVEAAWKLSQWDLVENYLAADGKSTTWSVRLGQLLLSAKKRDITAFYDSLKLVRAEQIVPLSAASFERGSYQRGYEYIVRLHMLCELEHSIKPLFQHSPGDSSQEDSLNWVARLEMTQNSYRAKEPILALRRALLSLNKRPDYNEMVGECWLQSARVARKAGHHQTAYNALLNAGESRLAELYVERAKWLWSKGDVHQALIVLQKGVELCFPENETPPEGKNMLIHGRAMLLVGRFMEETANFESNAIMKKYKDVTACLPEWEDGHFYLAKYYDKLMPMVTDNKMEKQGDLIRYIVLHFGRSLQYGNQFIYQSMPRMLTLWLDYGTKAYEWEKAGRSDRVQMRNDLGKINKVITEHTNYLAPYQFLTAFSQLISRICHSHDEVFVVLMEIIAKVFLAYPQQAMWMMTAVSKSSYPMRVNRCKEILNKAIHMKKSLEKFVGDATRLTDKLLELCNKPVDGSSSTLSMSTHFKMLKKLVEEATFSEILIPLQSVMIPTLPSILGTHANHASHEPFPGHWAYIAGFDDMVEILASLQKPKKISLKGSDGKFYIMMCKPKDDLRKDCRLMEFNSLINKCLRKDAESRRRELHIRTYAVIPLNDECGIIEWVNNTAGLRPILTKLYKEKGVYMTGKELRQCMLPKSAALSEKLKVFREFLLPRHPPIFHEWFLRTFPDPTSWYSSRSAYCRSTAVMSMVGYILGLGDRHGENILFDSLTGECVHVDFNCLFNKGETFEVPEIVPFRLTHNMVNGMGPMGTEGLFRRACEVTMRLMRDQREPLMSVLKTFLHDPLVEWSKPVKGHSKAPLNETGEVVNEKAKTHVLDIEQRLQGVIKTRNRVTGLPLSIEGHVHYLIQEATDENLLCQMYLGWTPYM
Sequence of ATR enzyme (Q8WXE1 whole entry partner): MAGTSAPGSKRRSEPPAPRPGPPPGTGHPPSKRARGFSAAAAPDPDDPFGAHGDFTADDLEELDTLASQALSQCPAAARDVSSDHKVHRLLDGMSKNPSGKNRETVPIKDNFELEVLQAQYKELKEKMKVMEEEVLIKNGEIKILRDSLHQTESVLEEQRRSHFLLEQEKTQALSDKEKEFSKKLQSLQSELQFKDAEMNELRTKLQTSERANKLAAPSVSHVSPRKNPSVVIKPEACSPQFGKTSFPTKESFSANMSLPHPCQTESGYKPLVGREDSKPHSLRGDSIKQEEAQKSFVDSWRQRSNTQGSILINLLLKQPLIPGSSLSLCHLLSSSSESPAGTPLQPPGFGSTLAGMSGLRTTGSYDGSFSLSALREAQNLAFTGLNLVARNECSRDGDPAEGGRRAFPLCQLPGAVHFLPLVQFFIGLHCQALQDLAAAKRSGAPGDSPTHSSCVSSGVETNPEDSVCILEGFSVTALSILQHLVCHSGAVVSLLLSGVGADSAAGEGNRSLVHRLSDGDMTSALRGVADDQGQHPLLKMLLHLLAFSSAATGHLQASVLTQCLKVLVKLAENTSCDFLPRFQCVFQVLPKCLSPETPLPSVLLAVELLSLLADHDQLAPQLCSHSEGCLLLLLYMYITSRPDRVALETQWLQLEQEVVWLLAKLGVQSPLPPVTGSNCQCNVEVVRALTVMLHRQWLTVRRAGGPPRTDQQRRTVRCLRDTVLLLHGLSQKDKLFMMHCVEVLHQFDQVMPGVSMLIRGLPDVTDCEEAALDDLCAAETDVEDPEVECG

As for `C#CC1CCC(O)(c2cc(N3CCOC[C@H]3C)nc3c2cnn3-c2cc[nH]n2)CC1` (stereo partly drawn) [Example 147, (R)-4-ethynyl-1-(6-(3-methylmorpholinyl)-1-(1H-pyrazolyl-3-yl)-1H-pyrazolyl[3,4-b]pyridin-4-yl)cyclohexanol], the IC50 at ATR enzyme is at most 0.01 µM; in the test with SNU-601 cells (120 h), at most 0.01 µM; in the test with LoVo cells (96 h), at most 0.02 µM.

Regarding `C[C@@H]1COCCN1c1cc(-c2ccc(NC(=O)c3ccncc3)cc2)c2cnn(-c3cc[nH]n3)c2n1` [Example 148], the IC50 on ATR enzyme was at most 0.01 µM; in the test on SNU-601 cells, 0.01 to 0.1 µM; in the test with LoVo cells, 0.02 to 0.1 µM.

Take `C[C@@H]1COCCN1c1cc(-c2ccc(NC(=O)c3cocn3)cc2)c2cnn(-c3cc[nH]n3)c2n1` [Example 164]: the IC50 on ATR enzyme was at most 0.01 µM; in the test on SNU-601 cells, 0.01 to 0.1 µM; in the test with LoVo cells it was 0.02 to 0.1 µM.

For `C[C@@H]1COCCN1c1cc(-c2ccc(NC(=O)N3CCCC3)c(C#N)c2)c2cnn(-c3cc[nH]n3)c2n1` [Example 228], the values for the IC50 at ATR enzyme, in the test with SNU-601 cells (120 h) and in the test on LoVo cells (96 h) were at most 0.01 µM, at most 0.01 µM and 0.02 to 0.1 µM, respectively.

`C[C@@H]1COCCN1c1cc(-c2ccc(NC(=O)c3cocn3)cc2F)c2cnn(-c3cc[nH]n3)c2n1` [Example 235]: the IC50 at ATR enzyme was at most 0.01 µM; in the test with SNU-601 cells (120 h), 0.01 to 0.1 µM; with LoVo cells (96 h) it was 0.02 to 0.1 µM.

In the case of `C[C@@H]1COCCN1c1cc(-c2ccc(N3CCCCS3(=O)=O)cc2F)c2cnn(-c3cc[nH]n3)c2n1` [Example 239], the IC50 at ATR enzyme is at most 0.01 µM; in the test with SNU-601 cells (120 h) it was 0.01 to 0.1 µM; in the test with LoVo cells (96 h) it was 0.02 to 0.1 µM.

Consider `C[C@@H]1COCCN1c1cc(-c2c(F)cc(N3CC4CCC(O4)C3=O)cc2F)c2cnn(-c3cc[nH]n3)c2n1` (stereo partly drawn) [Example 261], for which the values for the IC50 at ATR enzyme, in the test on SNU-601 cells (120 h) and in the test with LoVo cells (96 h) were at most 0.01 µM, 0.01 to 0.1 µM and 0.02 to 0.1 µM, respectively.

In the case of `C[C@@H]1COCCN1c1cc(C2(O)CCC(C#N)CC2)c2cnn(-c3cc[nH]n3)c2n1` (stereo partly drawn) [RP103, reference compound], the IC50 on ATR enzyme was at most 0.01 µM; with SNU-601 cells (120 h), 0.01 to 0.1 µM; in the test with LoVo cells (96 h) it was 0.02 to 0.1 µM.

As for `C[C@@H]1COCCN1c1cc([C@]2(O)C[C@H]3CC[C@@H](C2)O3)c2cnn(-c3ccn[nH]3)c2n1` [RP3500, reference compound], the values for the IC50 at ATR enzyme, in the test with SNU-601 cells (120 h) and in the test on LoVo cells (96 h) were at most 0.01 µM, 0.01 to 0.1 µM and 0.02 to 0.1 µM, respectively.
